The subject of the first test is COLO-792. As to the kind of experiment: cells. It is filed as functional, cell-based. Conditions: Homo sapiens.
Description: SANGER: Inhibition of human COLO-792 cell growth in a cell viability assay.
In general, IC50 refers to the concentration at which inhibition is half-maximal. High values mean a need for much substance, low ones inhibition by little substance. `CC1(C)CCC(c2ccc(Cl)cc2)=C(CN2CCN(c3ccc(C(=O)NS(=O)(=O)c4ccc(N[C@H](CCN5CCOCC5)CSc5ccccc5)c(S(=O)(=O)C(F)(F)F)c4)cc3)CC2)C1` [NAVITOCLAX] had an IC50 of 1200 nM.

Another test relates to COR-L105. As to the kind of experiment: cells. Conditions: Homo sapiens. It counts as functional, cell-based.
Description: SANGER: Inhibition of human COR-L105 cell growth in a cell viability assay.
`CC1(C)CCC(c2ccc(Cl)cc2)=C(CN2CCN(c3ccc(C(=O)NS(=O)(=O)c4ccc(N[C@H](CCN5CCOCC5)CSc5ccccc5)c(S(=O)(=O)C(F)(F)F)c4)cc3)CC2)C1` [NAVITOCLAX]: the IC50 is greater than 2000 nM.

A further test concerns CP50-MEL-B. As to the kind of experiment: cells. The following applies: Homo sapiens. It counts as functional, cell-based.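 Further: growth inhibition of the human cell line, measured with a cell viability read-out.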
Description: SANGER: Inhibition of human CP50-MEL-B cell growth in a cell viability assay.
Take `CC1(C)CCC(c2ccc(Cl)cc2)=C(CN2CCN(c3ccc(C(=O)NS(=O)(=O)c4ccc(N[C@H](CCN5CCOCC5)CSc5ccccc5)c(S(=O)(=O)C(F)(F)F)c4)cc3)CC2)C1` [NAVITOCLAX]: the IC50 is greater than 2000 nM.

A further test concerns D-336MG. As to the kind of experiment: cells. It counts as functional, cell-based, Homo sapiens. Conditions: Homo sapiens, D-336MG.
Description: SANGER: Inhibition of human D-336MG cell growth in a cell viability assay.
`CC1(C)CCC(c2ccc(Cl)cc2)=C(CN2CCN(c3ccc(C(=O)NS(=O)(=O)c4ccc(N[C@H](CCN5CCOCC5)CSc5ccccc5)c(S(=O)(=O)C(F)(F)F)c4)cc3)CC2)C1` [NAVITOCLAX] had an IC50 greater than 2000 nM.

The next test has as its system DBTRG-05MG. As to the kind of experiment: cells. The following applies: Homo sapiens. It is filed as functional, cell-based.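 Further: cell viability assay measuring growth inhibition of human DBTRG-05MG cells.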
Description: SANGER: Inhibition of human DBTRG-05MG cell growth in a cell viability assay.
In turn, `CC1(C)CCC(c2ccc(Cl)cc2)=C(CN2CCN(c3ccc(C(=O)NS(=O)(=O)c4ccc(N[C@H](CCN5CCOCC5)CSc5ccccc5)c(S(=O)(=O)C(F)(F)F)c4)cc3)CC2)C1` [NAVITOCLAX] registered an IC50 greater than 2000 nM.

The next test has as its system ESS-1. As to the kind of experiment: cells. It is filed as functional, cell-based. Conditions: Homo sapiens.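 Further: growth inhibition of human ESS-1 cells, read out by a cell viability assay.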
Description: SANGER: Inhibition of human ESS-1 cell growth in a cell viability assay.
In the case of `CC1(C)CCC(c2ccc(Cl)cc2)=C(CN2CCN(c3ccc(C(=O)NS(=O)(=O)c4ccc(N[C@H](CCN5CCOCC5)CSc5ccccc5)c(S(=O)(=O)C(F)(F)F)c4)cc3)CC2)C1` [NAVITOCLAX], the IC50 is greater than 2000 nM.

In a further test the test system is GMS-10. Kind of test: cells. It is filed as functional, cell-based. Conditions: Homo sapiens.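 Further: growth inhibition of GMS-10 cells, read out as cell viability.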
Description: SANGER: Inhibition of human GMS-10 cell growth in a cell viability assay.
Take `CC1(C)CCC(c2ccc(Cl)cc2)=C(CN2CCN(c3ccc(C(=O)NS(=O)(=O)c4ccc(N[C@H](CCN5CCOCC5)CSc5ccccc5)c(S(=O)(=O)C(F)(F)F)c4)cc3)CC2)C1` [NAVITOCLAX]: the 50% inhibitory concentration (IC50) was greater than 2000 nM.

Another test deals with HCC1419. Kind of test: cells. It is filed as functional, cell-based. Conditions: Homo sapiens.
Description: SANGER: Inhibition of human HCC1419 cell growth in a cell viability assay.
For `CC1(C)CCC(c2ccc(Cl)cc2)=C(CN2CCN(c3ccc(C(=O)NS(=O)(=O)c4ccc(N[C@H](CCN5CCOCC5)CSc5ccccc5)c(S(=O)(=O)C(F)(F)F)c4)cc3)CC2)C1` [NAVITOCLAX], the IC50 is greater than 2000 nM.

In a further test the test system is HT-1080. Kind of test: cells. It is filed as functional, cell-based. The following applies: Homo sapiens.
Description: SANGER: Inhibition of human HT-1080 cell growth in a cell viability assay.
In turn, `CC1(C)CCC(c2ccc(Cl)cc2)=C(CN2CCN(c3ccc(C(=O)NS(=O)(=O)c4ccc(N[C@H](CCN5CCOCC5)CSc5ccccc5)c(S(=O)(=O)C(F)(F)F)c4)cc3)CC2)C1` [NAVITOCLAX] came in with an IC50 greater than 2000 nM.

For the next test, the system named is Hs-578T. As to the kind of experiment: cells. The following applies: Homo sapiens. It counts as functional, cell-based.
Description: SANGER: Inhibition of human Hs-578-T cell growth in a cell viability assay.
In turn, `CC1(C)CCC(c2ccc(Cl)cc2)=C(CN2CCN(c3ccc(C(=O)NS(=O)(=O)c4ccc(N[C@H](CCN5CCOCC5)CSc5ccccc5)c(S(=O)(=O)C(F)(F)F)c4)cc3)CC2)C1` [NAVITOCLAX] returned an IC50 greater than 2000 nM.

Another test relates to HuO9. As to the kind of experiment: cells. It is filed as functional, cell-based. Conditions: Homo sapiens.
Description: SANGER: Inhibition of human HuO9 cell growth in a cell viability assay.
`CC1(C)CCC(c2ccc(Cl)cc2)=C(CN2CCN(c3ccc(C(=O)NS(=O)(=O)c4ccc(N[C@H](CCN5CCOCC5)CSc5ccccc5)c(S(=O)(=O)C(F)(F)F)c4)cc3)CC2)C1` [NAVITOCLAX] returned an IC50 of 267 nM.

In the next test the test system is KOSC-2. Kind of test: cells. It is filed as functional, cell-based. Conditions: Homo sapiens.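 Further: growth inhibition of KOSC-2 cells, read out by a cell viability assay.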
Description: SANGER: Inhibition of human KOSC-2 cell growth in a cell viability assay.
`CC1(C)CCC(c2ccc(Cl)cc2)=C(CN2CCN(c3ccc(C(=O)NS(=O)(=O)c4ccc(N[C@H](CCN5CCOCC5)CSc5ccccc5)c(S(=O)(=O)C(F)(F)F)c4)cc3)CC2)C1` [NAVITOCLAX] had an IC50 greater than 2000 nM.

The test system of the next test is KYSE-180. Kind of test: cells. It is filed as functional, cell-based. The following applies: Homo sapiens.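 Further: growth inhibition of KYSE-180 cells, read out with a cell viability assay.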
Description: SANGER: Inhibition of human KYSE-180 cell growth in a cell viability assay.
Consider `CC1(C)CCC(c2ccc(Cl)cc2)=C(CN2CCN(c3ccc(C(=O)NS(=O)(=O)c4ccc(N[C@H](CCN5CCOCC5)CSc5ccccc5)c(S(=O)(=O)C(F)(F)F)c4)cc3)CC2)C1` [NAVITOCLAX], for which the half-maximal inhibitory concentration (IC50) is greater than 2000 nM.

The test system of another test is KYSE-410. Kind of test: cells. It is filed as functional, cell-based. Conditions: Homo sapiens.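 Further: growth inhibition of KYSE-410 cells, measured through a cell viability readout.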
Description: SANGER: Inhibition of human KYSE-410 cell growth in a cell viability assay.
`CC1(C)CCC(c2ccc(Cl)cc2)=C(CN2CCN(c3ccc(C(=O)NS(=O)(=O)c4ccc(N[C@H](CCN5CCOCC5)CSc5ccccc5)c(S(=O)(=O)C(F)(F)F)c4)cc3)CC2)C1` [NAVITOCLAX] returned an IC50 greater than 2000 nM.

The next test has as its system KYSE-450. As to the kind of experiment: cells. It counts as functional, cell-based. Conditions: Homo sapiens.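 Further: cell growth inhibition measured by a viability assay in human KYSE-450 cells.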
Description: SANGER: Inhibition of human KYSE-450 cell growth in a cell viability assay.
In turn, `CC1(C)CCC(c2ccc(Cl)cc2)=C(CN2CCN(c3ccc(C(=O)NS(=O)(=O)c4ccc(N[C@H](CCN5CCOCC5)CSc5ccccc5)c(S(=O)(=O)C(F)(F)F)c4)cc3)CC2)C1` [NAVITOCLAX] yielded an IC50 greater than 2000 nM.

The subject of another test is MDA-MB-175-VII. Kind of test: cells. It is filed as functional, cell-based. The following applies: Homo sapiens.
In turn, `CC1(C)CCC(c2ccc(Cl)cc2)=C(CN2CCN(c3ccc(C(=O)NS(=O)(=O)c4ccc(N[C@H](CCN5CCOCC5)CSc5ccccc5)c(S(=O)(=O)C(F)(F)F)c4)cc3)CC2)C1` [NAVITOCLAX] came in with an IC50 greater than 2000 nM.

The test system of a further test is MDA-MB-361. As to the kind of experiment: cells. It counts as functional, cell-based. The following applies: Homo sapiens.
The compound `CC1(C)CCC(c2ccc(Cl)cc2)=C(CN2CCN(c3ccc(C(=O)NS(=O)(=O)c4ccc(N[C@H](CCN5CCOCC5)CSc5ccccc5)c(S(=O)(=O)C(F)(F)F)c4)cc3)CC2)C1` [NAVITOCLAX] yielded an IC50 greater than 2000 nM.

In the next test the test system is MDA-MB-415. Kind of test: cells. It counts as functional, cell-based. Conditions: Homo sapiens.
As for `CC1(C)CCC(c2ccc(Cl)cc2)=C(CN2CCN(c3ccc(C(=O)NS(=O)(=O)c4ccc(N[C@H](CCN5CCOCC5)CSc5ccccc5)c(S(=O)(=O)C(F)(F)F)c4)cc3)CC2)C1` [NAVITOCLAX], the IC50 was found to be 1390 nM.

For the next test, the system named is NCI-H1563. Kind of test: cells. It counts as functional, cell-based. The following applies: Homo sapiens.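 Further: growth inhibition of human NCI-H1563 cells, read out with a cell viability assay.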
Description: SANGER: Inhibition of human NCI-H1563 cell growth in a cell viability assay.
Take `CC1(C)CCC(c2ccc(Cl)cc2)=C(CN2CCN(c3ccc(C(=O)NS(=O)(=O)c4ccc(N[C@H](CCN5CCOCC5)CSc5ccccc5)c(S(=O)(=O)C(F)(F)F)c4)cc3)CC2)C1` [NAVITOCLAX]: the IC50 is greater than 2000 nM.

The subject of a further test is NCI-H650. Kind of test: cells. It counts as functional, cell-based. Conditions: Homo sapiens.
Description: SANGER: Inhibition of human NCI-H650 cell growth in a cell viability assay.
In turn, `CC1(C)CCC(c2ccc(Cl)cc2)=C(CN2CCN(c3ccc(C(=O)NS(=O)(=O)c4ccc(N[C@H](CCN5CCOCC5)CSc5ccccc5)c(S(=O)(=O)C(F)(F)F)c4)cc3)CC2)C1` [NAVITOCLAX] yielded an IC50 greater than 2000 nM.

Another test relates to NUGC-3. As to the kind of experiment: cells. Conditions: Homo sapiens. It counts as functional, cell-based.
Description: SANGER: Inhibition of human NUGC-3 cell growth in a cell viability assay.
For `CC1(C)CCC(c2ccc(Cl)cc2)=C(CN2CCN(c3ccc(C(=O)NS(=O)(=O)c4ccc(N[C@H](CCN5CCOCC5)CSc5ccccc5)c(S(=O)(=O)C(F)(F)F)c4)cc3)CC2)C1` [NAVITOCLAX], the IC50 is greater than 2000 nM.

Values taken from ChEMBL document CHEMBL1201861, “Genomics of Drug Sensitity in Cancer screening data, Wellcome Trust Sanger Institute”.
